Experiments:
[1] = system: cytochrome P450 enzymes; assay: Cytochrome P450 inhibition
[2] = molecular target: Recombinant MAO-A (Homo sapiens, UniProt P21397); assay: IC50 determination against other human amine oxidases; type: biochemical
Source text: (§1) Data are presented as mean ± s.d. […] Data presented as mean ± s.d. […] Source data TEXT PRINTED IN THE PICTURE: (b) PXS-5505: Recombinant DAO IC50 (nM): >30,000; Recombinant SSAO/VAP1 IC50 (nM): >30,000; Recombinant MAO-A IC50 (nM): >30,000; Recombinant MAO-B IC50 (nM): >30,000 | (f) PXS-5505: Fibroblast LOX IC50 (nM): 4,930; Recombinant LOXL-1 IC50 (nM): 1,590; Recombinant LOXL-2 IC50 (nM): 570; Recombinant LOXL-3 IC50 (nM): 1,800; Recombinant LOXL-4 IC50 (nM): 190

[3] = molecular target: Recombinant SSAO/VAP1 (Homo sapiens, UniProt Q16853); assay: as above; type: biochemical
Source text: as §1

[4] = molecular target: Recombinant MAO-B (Homo sapiens, UniProt P27338); assay: as above; type: biochemical
Chain of Recombinant MAO-B (P27338 whole entry): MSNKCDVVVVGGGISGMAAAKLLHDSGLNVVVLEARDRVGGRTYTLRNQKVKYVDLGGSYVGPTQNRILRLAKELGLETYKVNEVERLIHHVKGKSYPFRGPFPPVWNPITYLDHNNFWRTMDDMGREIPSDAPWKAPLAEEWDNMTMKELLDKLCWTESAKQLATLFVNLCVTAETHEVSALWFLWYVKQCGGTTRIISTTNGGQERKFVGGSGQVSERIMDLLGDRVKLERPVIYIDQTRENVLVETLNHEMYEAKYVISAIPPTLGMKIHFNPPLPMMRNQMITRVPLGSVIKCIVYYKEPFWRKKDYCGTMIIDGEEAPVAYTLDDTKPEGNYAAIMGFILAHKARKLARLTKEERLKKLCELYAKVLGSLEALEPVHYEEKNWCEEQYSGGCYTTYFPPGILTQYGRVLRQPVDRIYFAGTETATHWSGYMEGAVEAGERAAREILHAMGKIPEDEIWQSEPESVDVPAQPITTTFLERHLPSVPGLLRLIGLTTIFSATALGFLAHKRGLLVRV
Source text: as §1

[5] = molecular target: T1, DAO (Homo sapiens, UniProt P19801); assay: as above; type: biochemical
T1 sequence (P19801 20-751): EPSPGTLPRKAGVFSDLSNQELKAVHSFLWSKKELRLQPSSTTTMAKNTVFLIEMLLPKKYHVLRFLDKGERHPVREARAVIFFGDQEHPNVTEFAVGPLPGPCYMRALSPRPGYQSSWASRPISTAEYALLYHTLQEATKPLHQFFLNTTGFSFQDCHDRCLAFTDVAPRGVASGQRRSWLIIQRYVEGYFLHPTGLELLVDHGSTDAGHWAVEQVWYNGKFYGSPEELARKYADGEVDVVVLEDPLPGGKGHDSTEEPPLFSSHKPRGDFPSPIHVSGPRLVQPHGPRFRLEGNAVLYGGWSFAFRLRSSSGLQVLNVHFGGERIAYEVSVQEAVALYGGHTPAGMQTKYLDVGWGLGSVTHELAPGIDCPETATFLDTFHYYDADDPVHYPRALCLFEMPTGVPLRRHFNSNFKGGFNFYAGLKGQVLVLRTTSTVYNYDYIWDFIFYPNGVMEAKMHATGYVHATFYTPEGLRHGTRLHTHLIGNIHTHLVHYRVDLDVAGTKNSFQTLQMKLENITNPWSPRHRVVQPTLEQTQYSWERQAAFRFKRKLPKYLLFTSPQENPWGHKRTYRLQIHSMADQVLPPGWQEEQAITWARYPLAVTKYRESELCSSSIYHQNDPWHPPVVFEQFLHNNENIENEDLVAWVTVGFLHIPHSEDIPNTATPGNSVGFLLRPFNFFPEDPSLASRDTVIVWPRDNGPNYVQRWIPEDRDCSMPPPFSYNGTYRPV
Source text: as §1

[6] = system: standard panel of macromolecular targets; assay: Eurofins SafetyScreen44 off-target panel (enzyme and radioligand-binding assays); settings: 30 µM
Source text: To increase specificity for the lysyl oxidase family, the design of PXS-5505 (Supplementary Data 1–3) was based upon substrate analog fluoroallylamines. Variants of fluoroallylamines have previously been used in amine oxidase inhibitors, including those targeting LOXL2 and LOXL3 (ref. [31]). […] Importantly, PXS-5505 not only maintains the potent functional inhibition of LOXL2 but linkage to a quinoline moiety improves potency for all other lysyl oxidase family members and is key to the superiority of PXS-5505 (Fig. 2a). PXS-5505 is the free base of the active principle, which is suitably isolated as a dihydrochloride salt.

[7] = molecular target: T2, SSAO (Homo sapiens, UniProt Q16853); assay: Substrate turnover by H2O2 release, amplex red coupled fluorometric activity assay (Extended Data Fig. 3a); type: biochemical
T2 sequence (Q16853 1-763): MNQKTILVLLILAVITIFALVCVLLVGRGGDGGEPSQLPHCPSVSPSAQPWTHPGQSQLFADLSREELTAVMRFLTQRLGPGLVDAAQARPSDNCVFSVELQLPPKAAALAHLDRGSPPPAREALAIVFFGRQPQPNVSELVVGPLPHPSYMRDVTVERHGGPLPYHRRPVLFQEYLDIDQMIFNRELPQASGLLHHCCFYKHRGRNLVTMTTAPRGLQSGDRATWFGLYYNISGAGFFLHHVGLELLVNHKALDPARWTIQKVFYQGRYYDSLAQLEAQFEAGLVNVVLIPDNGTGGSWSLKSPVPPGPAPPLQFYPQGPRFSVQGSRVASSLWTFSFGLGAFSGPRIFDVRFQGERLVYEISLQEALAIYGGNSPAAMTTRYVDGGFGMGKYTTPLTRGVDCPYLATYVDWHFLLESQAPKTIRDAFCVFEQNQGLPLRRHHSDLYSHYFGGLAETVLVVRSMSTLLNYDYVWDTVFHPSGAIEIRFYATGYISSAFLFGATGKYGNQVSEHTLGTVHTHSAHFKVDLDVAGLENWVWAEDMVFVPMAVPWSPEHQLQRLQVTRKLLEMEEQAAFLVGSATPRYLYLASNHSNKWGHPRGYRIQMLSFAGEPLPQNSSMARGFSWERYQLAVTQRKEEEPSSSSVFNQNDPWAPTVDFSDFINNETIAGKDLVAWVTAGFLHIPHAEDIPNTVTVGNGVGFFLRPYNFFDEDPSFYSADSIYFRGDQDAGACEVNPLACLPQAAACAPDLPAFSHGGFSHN
Source text: Specifically, BAPN is oxidized by diamine oxidase (DAO) and semicarbazide-sensitive amine oxidase (SSAO)/vascular adhesion protein 1 (VAP-1) in the vasculature (Extended Data Fig. 3a), which releases hydrogen […] (H2O2) and aldehyde in humans leading to toxicity.
Data presented as mean values +/− SD. f. […] Data presented as mean values +/− SD. […] Data presented as mean values +/− SD. […] Data presented as mean values +/− SD. Ordinary one-way ANOVA for multiple comparison test performed. Source data

[8] = Preclinical genotoxicity and toxicity studies; type: in vivo
[9] = Plasma protein binding; type: in vitro ADME; settings: In vitro (human), read-out: Plasma protein binding, % bound (converted)

Chain of Recombinant MAO-A (P21397 whole entry): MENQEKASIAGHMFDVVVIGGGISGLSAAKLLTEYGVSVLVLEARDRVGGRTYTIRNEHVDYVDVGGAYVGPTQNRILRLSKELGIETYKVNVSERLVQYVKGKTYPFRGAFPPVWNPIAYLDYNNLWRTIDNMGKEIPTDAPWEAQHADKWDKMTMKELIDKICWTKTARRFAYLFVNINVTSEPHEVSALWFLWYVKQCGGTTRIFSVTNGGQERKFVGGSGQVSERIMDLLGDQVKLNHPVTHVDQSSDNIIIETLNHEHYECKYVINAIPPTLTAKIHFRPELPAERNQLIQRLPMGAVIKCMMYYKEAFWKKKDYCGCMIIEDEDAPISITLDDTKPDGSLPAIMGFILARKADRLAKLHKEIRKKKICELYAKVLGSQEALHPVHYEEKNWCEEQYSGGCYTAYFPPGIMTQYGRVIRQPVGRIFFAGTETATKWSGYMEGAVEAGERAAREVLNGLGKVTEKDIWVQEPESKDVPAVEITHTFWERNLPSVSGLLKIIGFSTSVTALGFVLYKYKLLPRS

Structure (SMILES): Cl.Cl.NC/C=C(\F)CS(=O)(=O)c1cccc2cccnc12.O [PXS-5505, (Z)-3-fluoro-4-(quinolin-8-ylsulfonyl)but-2-en-1-amine dihydrochloride monohydrate]
- inhibition of cytochrome P450 enzymes [1]: does not inhibit
- IC50 [2]: > 30 µM
- IC50 [3]: > 30 µM
- IC50 [4]: > 30 µM
- IC50 [5]: > 30 µM
- off-target activity against a standard panel of macromolecular targets [6]: does not show any significant off-target activity
- processing as a substrate by SSAO/VAP-1 [7]: not processed as a substrate
- Turnover by SSAO as measured by H2O2 release, mean ([7]; listed as value 30 (unit not given)): 1.019
- Turnover by SSAO as measured by H2O2 release, mean ([7]; listed as value 60 (unit not given)): 1.0116
- Turnover by SSAO as measured by H2O2 release, mean ([7]; listed as value 300 (unit not given)): 1.1921
- tolerability in preclinical toxicity studies ([8]; 6 months): well tolerated
- preclinical development including genotoxicity and toxicity studies ([8]; in vivo): successfully passed
- fraction unbound [9]: 0.78

Reference: article PMC10518255, “A first-in-class pan-lysyl oxidase inhibitor impairs stromal remodeling and enhances gemcitabine response and survival in pancreatic cancer” (Nature Cancer, 2023)
